US20260207602A1, “EGFR INHIBITORS” (Blueprint Medicines Corporation, priority 2022, published 2026)

How the values were obtained:
EGFR L858R = molecular target: T1, EGFR L858R (Homo sapiens, UniProt P00533, L858R); assay: Biochemical EGFR inhibition assay (Caliper mobility shift), EGFR L858R; settings: biochemical Caliper mobility shift assay, EGFR L858R enzyme; read-out: Enz EGFR L858R IC50
T1 construct: purchased SignalChem E10-122BG
Outline: (§1)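 Apparent IC50 values come from Caliper electrophoretic separation of phosphorylated and unphosphorylated 5-FAM peptide (2.5 μM). ATP was either 1.0 mM or at Km; HEPES pH 7.5 buffer with MgCl2, DTT, 1% DMSO. Reactions ran at 25 °C until 10–20% phosphorylated, then EDTA quench.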

EGFR (d746-750) = molecular target: T2, EGFR (d746-750) (Homo sapiens, UniProt P00533, DEL746-750); assay: Biochemical EGFR inhibition assay (Caliper mobility shift), EGFR (d746-750); settings: biochemical Caliper mobility shift assay, EGFR Exon 19-del enzyme; read-out: Enz EGFR Exon 19-del IC50
T2 construct: purchased SignalChem E10-122JG
T2 sequence (P00533 with tags, fused parts or gaps DEL746-750 limits assumed): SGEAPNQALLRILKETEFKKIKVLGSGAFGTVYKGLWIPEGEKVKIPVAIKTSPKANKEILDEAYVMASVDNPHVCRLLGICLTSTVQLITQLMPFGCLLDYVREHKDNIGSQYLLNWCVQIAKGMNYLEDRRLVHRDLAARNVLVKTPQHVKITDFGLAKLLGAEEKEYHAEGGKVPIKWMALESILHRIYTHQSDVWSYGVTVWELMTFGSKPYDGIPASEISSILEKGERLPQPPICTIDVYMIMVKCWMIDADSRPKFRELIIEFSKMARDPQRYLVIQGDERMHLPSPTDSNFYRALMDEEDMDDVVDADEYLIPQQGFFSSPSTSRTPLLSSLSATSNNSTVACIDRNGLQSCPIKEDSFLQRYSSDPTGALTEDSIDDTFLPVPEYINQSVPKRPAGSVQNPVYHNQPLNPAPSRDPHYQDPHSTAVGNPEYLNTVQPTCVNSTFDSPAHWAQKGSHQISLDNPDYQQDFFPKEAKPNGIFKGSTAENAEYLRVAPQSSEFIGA
Outline: as §1

[1] = molecular target: intracellular phosphorylation of EGFR (Tyr1068) in PC-9 cells (Homo sapiens, UniProt P00533, DEL746-750); assay: PC-9 pEGFR AlphaLISA assay; type: cell-based; settings: 4 hours incubation, read-out: Phos EGFR PC9 IC50
intracellular phosphorylation of EGFR (Tyr1068) in PC-9 cells, sequence (P00533 with tags, fused parts or gaps DEL746-750): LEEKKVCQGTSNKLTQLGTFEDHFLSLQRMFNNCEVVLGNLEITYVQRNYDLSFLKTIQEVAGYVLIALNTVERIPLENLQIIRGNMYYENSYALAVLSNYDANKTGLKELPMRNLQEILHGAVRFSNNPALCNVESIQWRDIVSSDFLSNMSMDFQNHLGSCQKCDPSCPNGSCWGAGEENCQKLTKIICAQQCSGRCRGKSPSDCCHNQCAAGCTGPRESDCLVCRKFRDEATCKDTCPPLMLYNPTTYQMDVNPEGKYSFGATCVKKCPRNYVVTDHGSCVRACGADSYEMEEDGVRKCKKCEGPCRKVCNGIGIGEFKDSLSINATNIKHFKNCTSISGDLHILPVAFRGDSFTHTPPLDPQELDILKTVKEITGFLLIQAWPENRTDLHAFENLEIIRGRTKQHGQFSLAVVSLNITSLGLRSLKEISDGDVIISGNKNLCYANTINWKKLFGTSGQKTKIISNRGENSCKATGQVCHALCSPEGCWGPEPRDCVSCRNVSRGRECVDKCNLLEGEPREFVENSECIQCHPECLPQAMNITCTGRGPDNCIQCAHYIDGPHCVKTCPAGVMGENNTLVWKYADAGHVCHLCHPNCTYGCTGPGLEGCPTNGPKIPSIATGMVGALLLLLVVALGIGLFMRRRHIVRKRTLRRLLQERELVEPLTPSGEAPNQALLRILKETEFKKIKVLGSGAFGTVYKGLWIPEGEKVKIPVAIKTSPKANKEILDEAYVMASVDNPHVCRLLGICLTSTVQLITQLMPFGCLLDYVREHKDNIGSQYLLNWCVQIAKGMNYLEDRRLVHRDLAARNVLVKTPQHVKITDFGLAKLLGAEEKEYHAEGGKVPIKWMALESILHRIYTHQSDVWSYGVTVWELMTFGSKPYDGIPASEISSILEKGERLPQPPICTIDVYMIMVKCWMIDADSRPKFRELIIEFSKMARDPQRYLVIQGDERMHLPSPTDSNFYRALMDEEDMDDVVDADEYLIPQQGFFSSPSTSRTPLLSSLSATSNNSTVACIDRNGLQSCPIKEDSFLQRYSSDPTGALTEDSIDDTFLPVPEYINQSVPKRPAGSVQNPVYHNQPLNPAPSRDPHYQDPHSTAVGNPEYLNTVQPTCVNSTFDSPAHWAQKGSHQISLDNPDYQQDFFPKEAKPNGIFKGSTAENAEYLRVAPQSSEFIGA
Outline: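 PC-9 cells (EGFR del746-750) in phenol-free DMEM/10% FBS, adhered overnight, then exposed to 10-point 4-fold compound dilutions for 4 h at 37 °C. Lysates assayed for pEGFR Tyr1068 by AlphaLISA SureFire Ultra; IC50 from percent pEGFR inhibition vs log concentration.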

T1 sequence (P00533 25-1210 L858R): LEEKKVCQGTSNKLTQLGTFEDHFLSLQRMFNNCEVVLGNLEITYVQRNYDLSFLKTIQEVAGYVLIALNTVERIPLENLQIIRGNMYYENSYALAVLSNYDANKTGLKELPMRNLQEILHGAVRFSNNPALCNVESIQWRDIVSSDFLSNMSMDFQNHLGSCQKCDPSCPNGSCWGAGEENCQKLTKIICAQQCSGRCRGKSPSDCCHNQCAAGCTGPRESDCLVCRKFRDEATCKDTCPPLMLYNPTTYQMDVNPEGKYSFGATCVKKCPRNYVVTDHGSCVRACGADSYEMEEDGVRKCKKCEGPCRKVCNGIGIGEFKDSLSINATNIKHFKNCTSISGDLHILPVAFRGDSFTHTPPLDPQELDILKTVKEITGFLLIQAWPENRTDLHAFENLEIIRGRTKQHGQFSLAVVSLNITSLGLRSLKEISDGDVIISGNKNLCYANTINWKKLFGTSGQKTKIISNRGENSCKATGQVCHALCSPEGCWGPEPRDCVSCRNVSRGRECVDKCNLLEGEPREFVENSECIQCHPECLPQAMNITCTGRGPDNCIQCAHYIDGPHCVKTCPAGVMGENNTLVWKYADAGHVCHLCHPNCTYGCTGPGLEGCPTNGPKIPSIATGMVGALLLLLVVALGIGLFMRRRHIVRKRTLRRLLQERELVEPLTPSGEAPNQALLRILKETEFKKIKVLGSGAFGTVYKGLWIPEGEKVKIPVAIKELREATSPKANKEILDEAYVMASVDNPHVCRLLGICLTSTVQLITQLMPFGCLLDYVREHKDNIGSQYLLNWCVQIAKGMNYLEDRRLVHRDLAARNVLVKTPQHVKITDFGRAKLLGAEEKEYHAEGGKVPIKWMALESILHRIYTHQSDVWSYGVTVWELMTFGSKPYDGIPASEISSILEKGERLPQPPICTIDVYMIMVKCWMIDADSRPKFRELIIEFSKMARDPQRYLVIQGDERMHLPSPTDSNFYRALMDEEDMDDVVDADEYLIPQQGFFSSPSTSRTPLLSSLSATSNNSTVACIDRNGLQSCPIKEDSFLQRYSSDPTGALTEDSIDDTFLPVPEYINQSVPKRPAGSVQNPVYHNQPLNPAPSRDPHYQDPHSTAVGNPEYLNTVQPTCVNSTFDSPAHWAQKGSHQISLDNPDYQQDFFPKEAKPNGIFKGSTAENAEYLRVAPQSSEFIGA

Structure (SMILES) | IC50 (EGFR L858R) [nM] | IC50 (EGFR (d746-750)) [nM] | IC50 [1] [nM]
C[C@@H](Oc1cc(N2CCN(C)CC2)cc2ncnc(Nc3ccc4ncsc4c3F)c12)[C@H]1CCCO1 [Example 115, 7-fluoro-N-(7-(4-methylpiperazin-1-yl)-5-((R)-1-((R)-tetrahydrofuran-2-yl)ethoxy)quinazolin-4-yl)benzo[d]thiazol-6-amine] | ≤ 10 | ≤ 10 | ≤ 10
COc1cc(O[C@H](C)C2COC2)c2c(Nc3ccc4ncsc4c3)ncnc2c1 [Example 124, (R)-N-(7-methoxy-5-(1-(oxetan-3-yl)ethoxy)quinazolin-4-yl)benzo[d]thiazol-6-amine] | ≤ 10 | ≤ 10 | 10.1 to 50
CC(C)Oc1cc(O[C@H](C)C2COC2)c2c(Nc3ccc4ncsc4c3)ncnc2c1 [Example 125, (R)-N-(7-isopropoxy-5-(1-(oxetan-3-yl)ethoxy)quinazolin-4-yl)benzo[d]thiazol-6-amine] | ≤ 10 | ≤ 10 | 10.1 to 50
COCCOc1cc(O[C@H](C)C2COC2)c2c(Nc3ccc4ncsc4c3)ncnc2c1 [Example 126, (R)-N-(7-(2-methoxyethoxy)-5-(1-(oxetan-3-yl)ethoxy)quinazolin-4-yl)benzo[d]thiazol-6-amine] | ≤ 10 | ≤ 10 | ≤ 10
[2H]C([2H])([2H])Oc1cc(O[C@H](C)C2COC2)c2c(Nc3ccc4ncsc4c3F)ncnc2c1 [Example 130, (R)-7-fluoro-N-(7-(methoxy-d3)-5-(1-(oxetan-3-yl)ethoxy)quinazolin-4-yl)benzo[d]thiazol-6-amine] | ≤ 10 | ≤ 10 | ≤ 10
COc1cn(C)nc1-c1cc(OC2CCN(C)CC2)c2c(Nc3ccc4ncsc4c3)ncnc2c1 [Example 131, N-(7-(4-methoxy-1-methyl-1H-pyrazol-3-yl)-5-((1-methylpiperidin-4-yl)oxy)quinazolin-4-yl)benzo[d]thiazol-6-amine] | 10.1 to 50 | ≤ 10 | 10.1 to 50
COc1cc2ncnc(Nc3ccc4ncsc4c3)c2cc1-c1cnn(C)c1 [Example 132, N-(7-methoxy-6-(1-methyl-1H-pyrazol-4-yl)quinazolin-4-yl)benzo[d]thiazol-6-amine] | ≤ 10 | ≤ 10 | ≤ 10
C[C@@H](Oc1cc(-c2cnn(C)c2)cc2ncnc(Nc3ccc4ncsc4c3)c12)C1COC1 [Example 133, (R)—N-(7-(1-methyl-1H-pyrazol-4-yl)-5-(1-(oxetan-3-yl)ethoxy)quinazolin-4-yl)benzo[d]thiazol-6-amine] | ≤ 10 | ≤ 10 | ≤ 10
Cn1cc(-c2cc(O[C@H]3CCCNC3)c3c(Nc4ccc5ncsc5c4)ncnc3c2)cn1 [Example 134, (S)-N-(7-(1-methyl-1H-pyrazol-4-yl)-5-(piperidin-3-yloxy)quinazolin-4-yl)benzo[d]thiazol-6-amine] | ≤ 10 | ≤ 10 | 10.1 to 50
Cc1ccnn1-c1cc(OC2CCOCC2)c2c(Nc3ccc4ncsc4c3)ncnc2c1 [Example 135, N-(7-(5-methyl-1H-pyrazol-1-yl)-5-((tetrahydro-2H-pyran-4-yl)oxy)quinazolin-4-yl)benzo[d]thiazol-6-amine] | 10.1 to 50 | 10.1 to 50 | > 50.1
COC[C@H](C)Oc1cc(-c2cnn(C)c2)cc2ncnc(Nc3ccc4ncsc4c3F)c12 [Example 139, (S)-7-fluoro-N-(5-((1-methoxypropan-2-yl)oxy)-7-(1-methyl-1H-pyrazol-4-yl)quinazolin-4-yl)benzo[d]thiazol-6-amine] | ≤ 10 | ≤ 10 | ≤ 10
COC[C@H](CN(C)C)Oc1cc(-c2cnn(C)c2)cc2ncnc(Nc3ccc4ncsc4c3)c12 [Example 141, (S)-N-(5-((1-(dimethylamino)-3-methoxypropan-2-yl)oxy)-7-(1-methyl-1H-pyrazol-4-yl)quinazolin-4-yl)benzo[d]thiazol-6-amine] | 10.1 to 50 | ≤ 10 | 10.1 to 50
COc1cc(O[C@H](C)CN(C)C)c2c(Nc3ccc4ncsc4c3F)ncnc2c1 [Example 146, (R)-N-(5-((1-(dimethylamino)propan-2-yl)oxy)-7-methoxyquinazolin-4-yl)-7-fluorobenzo[d]thiazol-6-amine] | 10.1 to 50 | ≤ 10 | 10.1 to 50
CN(C)C1CCC1Oc1cc(-c2cnn(C)c2)cc2ncnc(Nc3ccc4ncsc4c3)c12 [Example 153, N-(5-((1S,2S)-2-(dimethylamino)cyclobutoxy)-7-(1-methyl-1H-pyrazol-4-yl)quinazolin-4-yl)benzo[d]thiazol-6-amine OR N-(5-((1R,2R)-2-(dimethylamino)cyclobutoxy)-7-(1-methyl-1H-pyrazol-4-yl)quinazolin-4-yl)benzo[d]thiazol-6-amine] | ≤ 10 | ≤ 10 | 10.1 to 50
COc1cc2ncnc(Nc3ccc4ncsc4c3)c2cc1-c1cnn(C2CCN(C)CC2)c1 [Example 163, N-(7-methoxy-6-(1-(1-methylpiperidin-4-yl)-1H-pyrazol-4-yl)quinazolin-4-yl)benzo[d]thiazol-6-amine] | ≤ 10 | ≤ 10 | ≤ 10
C[C@H](CN(C)C)Oc1cc(N2CC3CC(C2)O3)cc2ncnc(Nc3ccc4ncsc4c3F)c12 [Example 176, N-(7-(6-oxa-3-azabicyclo[3.1.1]heptan-3-yl)-5-(((R)-1-(dimethylamino)propan-2-yl)oxy)quinazolin-4-yl)-7-fluorobenzo[d]thiazol-6-amine] | 10.1 to 50 | ≤ 10 | ≤ 10
C[C@H](CN(C)C)Oc1cc(N2CC3CC(C2)O3)cc2ncnc(Nc3ccc4ncsc4c3)c12 [Example 177, N-(7-(6-oxa-3-azabicyclo[3.1.1]heptan-3-yl)-5-(((R)-1-(dimethylamino)propan-2-yl)oxy)quinazolin-4-yl)benzo[d]thiazol-6-amine] | ≤ 10 | ≤ 10 | ≤ 10
C[C@@H](O)[C@@H](C)Oc1cc(-c2cnn(C)c2)cc2ncnc(Nc3ccc4ncsc4c3)c12 [Example 184, (2R,3R)-3-((4-(benzo[d]thiazol-6-ylamino)-7-(1-methyl-1H-pyrazol-4-yl)quinazolin-5-yl)oxy)butan-2-ol] | ≤ 10 | ≤ 10 | ≤ 10

Further lines, results first:

IC50 (EGFR L858R) [nM] | IC50 (EGFR (d746-750)) [nM] | IC50 [1] [nM] | Structure (SMILES)
≤ 10 | ≤ 10 | 10.1 to 50 | C[C@@H](Oc1cc(N2CCN(C)CC2)cc2ncnc(Nc3ccc4ncsc4c3F)c12)[C@@H]1CCCO1 [Example 114, 7-fluoro-N-(7-(4-methylpiperazin-1-yl)-5-((R)-1-((S)-tetrahydrofuran-2-yl)ethoxy)quinazolin-4-yl)benzo[d]thiazol-6-amine]
≤ 10 | ≤ 10 | ≤ 10 | C[C@@H](Oc1cc(N2CC3CC(C2)O3)cc2ncnc(Nc3ccc4ncsc4c3)c12)C1COC1 [Example 129, N-(7-(6-oxa-3-azabicyclo[3.1.1]heptan-3-yl)-5-((R)-1-(oxetan-3-yl)ethoxy)quinazolin-4-yl)benzo[d]thiazol-6-amine]
≤ 10 | ≤ 10 | 10.1 to 50 | Cc1ccn(-c2cc(OC3CCOCC3)c3c(Nc4ccc5ncsc5c4)ncnc3c2)n1 [Example 136, N-(7-(3-methyl-1H-pyrazol-1-yl)-5-((tetrahydro-2H-pyran-4-yl)oxy)quinazolin-4-yl)benzo[d]thiazol-6-amine]
≤ 10 | ≤ 10 | ≤ 10 | C[C@H](CN(C)C)Oc1cc(-c2cnn(C)c2)cc2ncnc(Nc3ccc4ncsc4c3F)c12 [Example 140, (R)-N-(5-((1-(dimethylamino)propan-2-yl)oxy)-7-(1-methyl-1H-pyrazol-4-yl)quinazolin-4-yl)-7-fluorobenzo[d]thiazol-6-amine]
≤ 10 | ≤ 10 | ≤ 10 | C[C@@H](Oc1cc(N2CC3CC(C2)O3)cc2ncnc(Nc3ccc4ncsc4c3F)c12)C1COC1 [Example 180, N-(7-(6-oxa-3-azabicyclo[3.1.1]heptan-3-yl)-5-((R)-1-(oxetan-3-yl)ethoxy)quinazolin-4-yl)-7-fluorobenzo[d]thiazol-6-amine]
≤ 10 | ≤ 10 | ≤ 10 | C[C@H](CN(C)C)Oc1cc(N2CC[C@H](C(C)(C)O)C2)cc2ncnc(Nc3ccc4ncsc4c3)c12 [Example 181, 2-((S)-1-(4-(benzo[d]thiazol-6-ylamino)-5-(((R)-1-(dimethylamino)propan-2-yl)oxy)quinazolin-7-yl)pyrrolidin-3-yl)propan-2-ol]
≤ 10 | ≤ 10 | ≤ 10 | C[C@H](CN(C)C)Oc1cc(N2CC[C@@H](C(C)(C)O)C2)cc2ncnc(Nc3ccc4ncsc4c3)c12 [Example 182, 2-((R)-1-(4-(benzo[d]thiazol-6-ylamino)-5-(((R)-1-(dimethylamino)propan-2-yl)oxy)quinazolin-7-yl)pyrrolidin-3-yl)propan-2-ol]
10.1 to 50 | ≤ 10 | 10.1 to 50 | C[C@H](CN(C)C)Oc1cc(N2CCOCC2)cc2ncnc(Nc3ccc4ncsc4c3F)c12 [Example 183, (R)-N-(5-((1-(dimethylamino)propan-2-yl)oxy)-7-morpholinoquinazolin-4-yl)-7-fluorobenzo[d]thiazol-6-amine]
